Results published in EPA's ToxValDB 9.5 (doi:10.2903/j.efsa.2014.3873).
In brackets after ≈: the same amount, converted by molar mass.

Key:
Daphnia magna = conditions: chronic/long-term, duration: 21 days
Rattus norvegicus = conditions: for NOAEL: clinical signs
Apis mellifera = conditions: acute; dermal; mortality
Bibionidae = conditions: chronic/long-term; duration: 28 days; other
Adalia sp. = assay: LR50; higher = less toxic; conditions: acute; duration: 48 hours; mortality

Compound: CC(C)[C@H](C(=O)O[C@H](C#N)c1cccc(Oc2ccccc2)c1)c1ccc(Cl)cc1 [Esfenvalerate]
- NOEC (Daphnia magna): 0.052 µg/L
- NOEC (Daphnia magna; reproduction): 0.0038 µg/L
- LC50 (Oncorhynchus mykiss; acute, duration: 96 hours, mortality): 0.1 ng/mL (≈ 0.238 nM)
- NOEC (Oncorhynchus mykiss; chronic/long-term, duration: 21 days): 0.001 µg/L
- NOAEL (Rattus norvegicus; acute): 1.75 mg/kg-day
- LD50 (Rattus norvegicus; acute, oral, mortality): 88.5 mg/kg
- NOAEL (Rattus norvegicus; chronic): 1.75 mg/kg-day
- LD50 (Apis mellifera): 0.06 µg/piece
- LD50 (Colinus virginianus; acute, oral, mortality): 1310 mg/kg-day
- NOEC (Colinus virginianus; reproduction developmental): 18.7 mg/kg-day
- LC50 (Tagia sp.; acute, mortality): 10.6 mg/kg
- NOEC (Tagia sp.; chronic/long-term): 1.1 mg/kg
- NOEC (Bibionidae): 0.16 µg/L
- LR50 (Adalia sp.): 0.291 g/ha
